Data on 31 compounds can be found in patent US12281057B2 (VERTEX PHARMACEUTICALS INCORPORATED, priority 2017, dated 2025).

Sequence of truncated form of human NaV 1.8 with full channel activity (Q9Y5Y9 126-1722 limits assumed): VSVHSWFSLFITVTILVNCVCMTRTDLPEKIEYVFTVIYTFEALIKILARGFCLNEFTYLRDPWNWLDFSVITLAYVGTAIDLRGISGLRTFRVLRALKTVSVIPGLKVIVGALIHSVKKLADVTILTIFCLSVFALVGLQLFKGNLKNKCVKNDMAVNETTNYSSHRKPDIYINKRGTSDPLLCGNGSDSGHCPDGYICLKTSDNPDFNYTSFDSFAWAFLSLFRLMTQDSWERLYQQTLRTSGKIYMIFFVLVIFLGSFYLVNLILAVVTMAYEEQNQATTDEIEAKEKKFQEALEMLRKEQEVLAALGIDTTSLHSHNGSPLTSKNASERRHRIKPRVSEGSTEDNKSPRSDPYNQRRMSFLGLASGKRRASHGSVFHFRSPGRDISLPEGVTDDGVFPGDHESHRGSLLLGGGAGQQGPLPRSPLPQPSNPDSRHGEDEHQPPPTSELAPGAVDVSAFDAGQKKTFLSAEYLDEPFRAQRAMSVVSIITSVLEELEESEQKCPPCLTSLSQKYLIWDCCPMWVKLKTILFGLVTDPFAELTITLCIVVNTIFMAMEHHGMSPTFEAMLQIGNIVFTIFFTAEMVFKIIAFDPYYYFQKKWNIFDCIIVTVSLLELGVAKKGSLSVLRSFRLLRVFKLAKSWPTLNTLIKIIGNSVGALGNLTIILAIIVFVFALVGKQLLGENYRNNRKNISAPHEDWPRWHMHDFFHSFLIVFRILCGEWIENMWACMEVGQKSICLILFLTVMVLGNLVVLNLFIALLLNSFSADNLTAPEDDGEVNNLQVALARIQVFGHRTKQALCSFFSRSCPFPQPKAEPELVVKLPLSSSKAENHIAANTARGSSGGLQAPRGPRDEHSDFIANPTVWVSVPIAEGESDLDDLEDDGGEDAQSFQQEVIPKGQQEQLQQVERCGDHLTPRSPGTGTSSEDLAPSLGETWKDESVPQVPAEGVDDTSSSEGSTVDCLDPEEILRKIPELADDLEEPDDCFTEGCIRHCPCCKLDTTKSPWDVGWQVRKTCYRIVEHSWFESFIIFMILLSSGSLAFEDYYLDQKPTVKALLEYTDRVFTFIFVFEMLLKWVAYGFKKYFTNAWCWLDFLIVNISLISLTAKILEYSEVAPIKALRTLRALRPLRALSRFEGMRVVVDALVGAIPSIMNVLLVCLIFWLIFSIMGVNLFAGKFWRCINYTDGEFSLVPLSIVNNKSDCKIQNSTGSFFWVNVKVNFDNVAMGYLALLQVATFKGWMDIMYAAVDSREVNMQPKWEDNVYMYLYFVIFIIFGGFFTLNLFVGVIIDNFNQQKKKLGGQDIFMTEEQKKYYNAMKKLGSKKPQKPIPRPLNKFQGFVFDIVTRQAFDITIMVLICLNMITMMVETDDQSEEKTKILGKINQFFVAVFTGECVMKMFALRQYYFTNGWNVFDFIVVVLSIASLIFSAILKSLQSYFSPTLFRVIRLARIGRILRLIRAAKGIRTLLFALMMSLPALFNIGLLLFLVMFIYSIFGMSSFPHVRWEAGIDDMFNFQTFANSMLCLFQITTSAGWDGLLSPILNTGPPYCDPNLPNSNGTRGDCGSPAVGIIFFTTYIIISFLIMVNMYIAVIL

One test has as its target truncated form of human NaV 1.8 with full channel activity (Homo sapiens, UniProt Q9Y5Y9). Put plainly: E-VIPR Assay Method A for detecting and measuring Nav inhibition (HEK cells, membrane potential FRET dyes, electrical stimulation). As to conditions: HEK cells expressing human NaV 1.8, HS (human serum) in compound loading buffer, 11 point dose response, top dose 3 μM, Table 20, read-out: Nav 1.8 MedChem Optical Assay EVIPR Assay Method A HS IC50. Type of test: cell-based. A digest of the protocol: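 Read-out: FRET membrane-potential dye ratio (460/580 nm) before and during E-VIPR field stimulation at 10 Hz for 10 s, expressed as % activity between DMSO and positive controls. Cells: HEK with truncated human NaV1.8; compound preincubated 30 min at room temp, final DMSO 0.625%.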
In the case of `COc1cc(OC(F)(F)F)ccc1Oc1cc(F)c(F)c(F)c1C(=O)Nc1ccc(F)c(C(N)=O)c1` [Compound 11, N-(3-carbamoyl-4-fluoro-phenyl)-2,3,4-trifluoro-6-[2-methoxy-4-(trifluoromethoxy)phenoxy]benzamide], the IC50 (commonly the midpoint of a concentration-inhibition curve) amounted to 4 nM.

Turning to `NC(=O)c1cc(NC(=O)c2c(Oc3ccc(OC(F)(F)F)c(F)c3)ccc(C(F)(F)F)c2F)ccc1F` [Compound 18, N-(3-carbamoyl-4-fluoro-phenyl)-2-fluoro-6-[3-fluoro-4-(trifluoromethoxy)phenoxy]-3-(trifluoromethyl)benzamide], the IC50 was 9 nM.

On to `NC(=O)c1cc(NC(=O)c2c(Oc3ccc(OC(F)(F)F)cc3OC(F)F)ccc(C(F)(F)F)c2F)ccn1` [Compound 13, 4-[[6-[2-(difluoromethoxy)-4-(trifluoromethoxy)phenoxy]-2-fluoro-3-(trifluoromethyl)benzoyl]amino]pyridine-2-carboxamide], for which the IC50 turned out to be 4 nM. With `[2H]C([2H])([2H])Oc1cc(OC(F)(F)F)ccc1Oc1cc(C(F)(F)F)cc(F)c1C(=O)Nc1ccnc(C(N)=O)c1` [Compound 17, 4-[[2-fluoro-6-[2-(trideuteriomethoxy)-4-(trifluoromethoxy)phenoxy]-4-(trifluoromethyl)benzoyl]amino]pyridine-2-carboxamide], the IC50 was determined as 8 nM. As for `NC(=O)c1cc(NC(=O)c2c(Oc3ccc(OC(F)(F)F)cc3F)ccc(C(F)(F)F)c2F)ccc1F` [Compound 21, N-(3-carbamoyl-4-fluoro-phenyl)-2-fluoro-6-[2-fluoro-4-(trifluoromethoxy)phenoxy]-3-(trifluoromethyl)benzamide], the IC50 was 10 nM.

With `COc1cc(OC(F)(F)F)ccc1Oc1cc(C2CC2)cc(F)c1C(=O)Nc1ccnc(C(N)=O)c1` [Compound 22, 4-[[4-cyclopropyl-2-fluoro-6-[2-methoxy-4-(trifluoromethoxy)phenoxy]benzoyl]amino]pyridine-2-carboxamide], the IC50 was determined as 11 nM.

Staying with this test, now noted: HEK cells expressing human NaV 1.8, HS (human serum) in compound loading buffer, 11 point dose response, top dose 3 μM, Table 20A, read-out: Nav 1.8 MedChem Optical Assay EVIPR Assay Method A HS IC50.
Consider `COc1ccc(Oc2cccc(C(F)(F)F)c2C(=O)Nc2ccc(F)c(C(N)=O)c2)c(OC)c1` [Compound 38, N-(3-Carbamoyl-4-fluoro-phenyl)-2-(2,4-dimethoxyphenoxy)-6-(trifluoromethyl)benzamide], for which the IC50 came out at 700 nM.

For the compound `CC(C)c1cc(Oc2ccc(OC(F)(F)F)c(F)c2)c(C(=O)Nc2ccc(F)c(C(N)=O)c2)cn1` [Compound 33, N-(3-Carbamoyl-4-fluoro-phenyl)-4-[3-fluoro-4-(trifluoromethoxy)phenoxy]-6-isopropyl-pyridine-3-carboxamide], the IC50 stood at 520 nM. Consider `[2H]C([2H])([2H])Oc1c(Oc2ccc(C(F)F)c(F)c2C(=O)Nc2ccc(C(N)=O)nc2)ccc(OC(F)(F)F)c1F` [Compound 236, 5-[[3-(Difluoromethyl)-2-fluoro-6-[3-fluoro-2-(trideuteriomethoxy)-4-(trifluoromethoxy)phenoxy]benzoyl]amino]pyridine-2-carboxamide], for which the IC50 worked out at 45 nM. With `COc1cc(OC(F)(F)F)ccc1Oc1cc(C(F)(F)F)cnc1C(=O)Nc1cccc(C(N)=O)c1` [Compound 31, N-(3-Carbamoylphenyl)-3-[2-methoxy-4-(trifluoromethoxy)phenoxy]-5-(trifluoromethyl)pyridine-2-carboxamide], the IC50 is 155 nM. With `Cc1cc(F)ccc1Oc1cccc(C(F)(F)F)c1C(=O)Nc1ccc(F)c(C(N)=O)c1` [Compound 41, N-(3-Carbamoyl-4-fluoro-phenyl)-2-(4-fluoro-2-methyl-phenoxy)-6-(trifluoromethyl)benzamide], the concentration for half-maximal inhibition (IC50) is 560 nM. Take `[2H]C([2H])([2H])Oc1c(Oc2cc(Cl)c(C(F)F)c(OC)c2C(=O)Nc2ccnc(C(N)=O)c2)ccc(OC(F)(F)F)c1F` [Compound 233]: the IC50 was 4 nM. For the compound `COc1cc(OC(F)(F)F)ccc1Oc1cc(C2(C)CC2)ncc1C(=O)Nc1ccnc(C(N)=O)c1` [Compound 105, N-(2-Carbamoyl-4-pyridyl)-4-[2-methoxy-4-(trifluoromethoxy)phenoxy]-6-(1-methylcyclopropyl)pyridine-3-carboxamide], the IC50 turned out to be 44 nM. In the case of `COc1ccc(Oc2ccc(C(F)(F)F)c(F)c2C(=O)Nc2ccnc(C(N)=O)c2)c(OC)c1` [Compound 195, 4-[[6-(2,4-Dimethoxyphenoxy)-2-fluoro-3-(trifluoromethyl)benzoyl]amino]pyridine-2-carboxamide], the IC50 is 11 nM. In the case of `NC(=O)c1cc(NC(=O)c2c(Oc3ccc(OC(F)(F)F)c(F)c3)ccc(C(F)(F)F)c2F)ccn1` [Compound 57, 4-[[2-fluoro-6-[3-fluoro-4-(trifluoromethoxy)phenoxy]-3-(trifluoromethyl)benzoyl]amino]pyridine-2-carboxamide], the IC50 is 17 nM. With `NC(=O)c1cc(NC(=O)c2cc(OC(F)(F)F)ccc2Oc2ccc(OC(F)(F)F)cc2)ccn1` [Compound 156, 4-[[5-(Trifluoromethoxy)-2-[4-(trifluoromethoxy)phenoxy]benzoyl]amino]pyridine-2-carboxamide], the IC50 is 560 nM.

`COc1cc(OC(F)(F)F)ccc1Oc1cc(Cl)cc(OC)c1C(=O)Nc1ccc(C(N)=O)nc1` [Compound 204, 5-[[4-Chloro-2-methoxy-6-[2-methoxy-4-(trifluoromethoxy)phenoxy]benzoyl]amino]pyridine-2-carboxamide]: the IC50 is 600 nM. With `COc1cc(OC(F)(F)F)ccc1Oc1ccc(C(F)(F)F)c(F)c1C(=O)Nc1cc(C(N)=O)ccn1` [Compound 87, 2-[[2-fluoro-6-[2-methoxy-4-(trifluoromethoxy)phenoxy]-3-(trifluoromethyl)benzoyl]amino]pyridine-4-carboxamide], the IC50 came to 150 nM. Take `NC(=O)c1cc(NC(=O)c2c(Oc3ccc(OC(F)(F)F)cc3)ccc(C3CC3)c2F)ccn1` [Compound 72, 4-[[3-Cyclopropyl-2-fluoro-6-[4-(trifluoromethoxy)phenoxy]benzoyl]amino]pyridine-2-carboxamide]: the IC50 worked out at 175 nM. As for `NC(=O)c1cc(NC(=O)c2c(Oc3ccc(OC(F)(F)F)cc3)ccc(C(F)(F)F)c2F)ccc1Cl` [Compound 134, N-(3-carbamoyl-4-chloro-phenyl)-2-fluoro-6-[4-(trifluoromethoxy)phenoxy]-3-(trifluoromethyl)benzamide], the IC50 stood at 68 nM. On to `COc1cc(OC(F)(F)F)ccc1Oc1cc(C(C)(C)C)ncc1C(=O)Nc1ccnc(C(N)=O)c1` [Compound 93, 6-tert-Butyl-N-(2-carbamoyl-4-pyridyl)-4-[2-methoxy-4-(trifluoromethoxy)phenoxy]pyridine-3-carboxamide], for which the IC50 was determined as 63 nM. In the case of `NC(=O)c1cccc(NC(=O)c2c(Oc3ccc(OC(F)(F)F)cc3)ccc(C(F)(F)F)c2F)c1` [Compound 47, N-(3-carbamoylphenyl)-2-fluoro-6-[4-(trifluoromethoxy)phenoxy]-3-(trifluoromethyl)benzamide], the IC50 turned out to be 22 nM. On the same count and under the same terms, the same measure for `COc1cc(OC(F)(F)F)ccc1Oc1cncc(F)c1C(=O)Nc1ccc(F)c(C(N)=O)c1` [Compound 117, N-(3-Carbamoyl-4-fluoro-phenyl)-3-fluoro-5-[2-methoxy-4-(trifluoromethoxy)phenoxy]pyridine-4-carboxamide]: 180 nM; for `NC(=O)c1cc(NC(=O)c2c(Oc3ccc(OC(F)F)cc3F)ccc(C(F)(F)F)c2F)ccn1` [Compound 136, 4-[[6-[4-(Difluoromethoxy)-2-fluoro-phenoxy]-2-fluoro-3-(trifluoromethyl)benzoyl]amino]pyridine-2-carboxamide]: 140 nM.

Take `NC(=O)c1cc(NC(=O)c2cc(F)c(C(F)(F)F)cc2Oc2ccc(OC(F)(F)F)cc2)ccn1` [Compound 76, 4-[[5-Fluoro-2-[4-(trifluoromethoxy)phenoxy]-4-(trifluoromethyl)benzoyl]amino]pyridine-2-carboxamide]: the IC50 turned out to be 350 nM. Turning to `COc1cc(OC(F)(F)F)ccc1Oc1cc(Cl)c(C)c(F)c1C(=O)Nc1ccnc(C(N)=O)c1` [Compound 201, 4-[[4-Chloro-2-fluoro-6-[2-methoxy-4-(trifluoromethoxy)phenoxy]-3-methyl-benzoyl]amino]pyridine-2-carboxamide], the IC50 amounted to 1 nM. Regarding `COc1cc(OC(F)(F)F)ccc1Oc1ccc(C(F)(F)F)c(F)c1C(=O)Nc1ccnc(C(=O)N(C)C)c1` [Compound 97, 4-[[2-fluoro-6-[2-methoxy-4-(trifluoromethoxy)phenoxy]-3-(trifluoromethyl)benzoyl]amino]-N,N-dimethyl-pyridine-2-carboxamide], the IC50 was 20 nM.

Regarding `NC(=O)c1cc(NC(=O)c2c(Oc3ccc(OC(F)(F)F)cc3)ccc(C(F)F)c2F)ccn1` [Compound 83, 4-[[3-(Difluoromethyl)-2-fluoro-6-[4-(trifluoromethoxy)phenoxy]benzoyl]amino]pyridine-2-carboxamide], the IC50 is 48 nM. On the same count and under the same terms, next, `COc1cc(F)ccc1-c1cc(C(F)(F)F)ccc1C(=O)Nc1ccc(F)c(C(N)=O)c1` [Compound 162, N-(3-carbamoyl-4-fluoro-phenyl)-2-(4-fluoro-2-methoxy-phenyl)-4-(trifluoromethyl)benzamide]: 170 nM; `[2H]C([2H])([2H])Oc1cc(OC(F)(F)F)ccc1Oc1cc(Cl)cc(Cl)c1C(=O)Nc1ccnc(C(N)=O)c1` [Compound 179, 4-[[2,4-Dichloro-6-[2-(trideuteriomethoxy)-4-(trifluoromethoxy)phenoxy]benzoyl]amino]pyridine-2-carboxamide]: 10 nM.

Consider `NC(=O)c1cc(NC(=O)c2ccc(OC(F)(F)F)cc2Oc2ccc(OC(F)(F)F)cc2)ccn1` [Compound 149, 4-[[4-(Trifluoromethoxy)-2-[4-(trifluoromethoxy)phenoxy]benzoyl]amino]pyridine-2-carboxamide], for which the IC50 is 1500 nM.
